Converted amounts (≈) assume the structure as drawn. Like-named read-outs stand apart in the source and are kept apart here.
Experiments:
[1] = tested on: HIV(3B) or HIV(RF) in MT-2 cells; type: cell-based; design: scale not given here; conditions: Table E, whole cell infectivity assay
Description: HIV Low Multiplicity Assay
Materials: MT-2, a human T-cell line, was cultured in RPMI medium supplemented with 5% (v/v) heat inactivated fetal calf serum (FCS), L-glutamine and gentamycin (GIBCO). Human immunodeficiency virus strains HIV (3B) and HIV (RF) were propagated in H-9 cells in RPMI with 5% FCS. XTT, benzene-sulfonic acid, 3,3′-[1-[(phenylamino) carbonyl]-3,4-tetrazolium]bis (4-methoxy-6nitro)-, sodium salt, was obtained from Starks Associates, Inc.
Method: Test compounds were dissolved in dimethylsulfoxide to 5 mg/ml and serially diluted into RPMI medium to ten times the desired final concentration. MT-2 cells (5×10^4/0.1 mL) were added to each well of a 96 well culture plate and 0.02 mL of the appropriate test compound solution was added to the cells such that each compound concentration was present in two wells. The cells and compounds were allowed to sit for 30 minutes at room temperature. HIV(3B) or HIV(RF) (−5×10^5 plaque foaming units/mL) was diluted in medium and added to the cell and compound mixtures to give a multiplicity of infection of 0.01 plaque forming unit/cell. The mixtures were incubated for 7 days at 36° C., during which time the virus replicated and caused the death of unprotected cells. The percentage of cells protected from virus induced cell death was determined by the degree of metabolism of the tetrazolium dye, XTT. In living cells, XTT was metabolized to a colored formazan product which was quantitated spectrophotometrically at 450 nm. The amount of colored formazan was proportional to the number of cells protected from virus by the test compound. The concentration of compound protecting either 50% (IC50) or 90% (IC90) with respect to an uninfected cell culture was determined.

[2] = biological target: T1, HIV protease (Human immunodeficiency virus type 1 group M subtype B, UniProt P04585); experiment: biochemical; design: species or system HIV-1
T1 construct: plasmid containing HIV protease under the control of an inducible T7 promoter; made in house; host or cells: E. coli (inclusion bodies, T7 promoter)
Description: HIV Protease Inhibition Assay—Spectroscopic Method
Inclusion bodies were solubilized in 8M urea, 50 mM tris pH 8.0. Protease activity was recovered by dilution 20-fold into buffer containing 50 mM sodium acetate pH 5.5, 1 mM EDTA, 10% glycerol and 5% ethylene glycol. Enzyme was used at a final concentration of 1.0-10 ug/ml.
Stock solutions of 10 mM were prepared in DMSO.
All further dilutions were done in DMSO.

[3] = tested on: HIV-1 protease; experiment: HIV-1 Protease Transgenic Mouse Model (cataract phenotype); conditions: Tg 61 mouse
Method: The HIV protease inhibitory activity of the presently claimed compounds was measured in this animal system as a delay or prevention of the onset of cataract appearance in the test animals.
Plasmid Construction: The mammalian expression vector pMSG (Pharmacia) was modified by replacing the MMTV LTR promoter with the 412-bp Bgl II-BamHI mouse alpha A-cryatallin promoter fragment (Chepelinsky et al. Proc. Natl. Acad. Sci. USA, 1985, 82, 2334-2338). The SV40 early splice and polyadenylation signals were retained and this plasmid was renamed pCSV 19. A single chain, tethered dimeric form of the active HIV-1 protease gene (BAA; Cheng et al., Proc. Natl. Acad. Sci. USA, 1990, 87, 9660-9664 and Cheng et al., Gene, 1990, 87, 243-248) was modified for mammalian cell expression by replacing nucleotides 7 to 90 with [sequence]. The gene was cut with EcoRI and Hind III and after blunt-end repair cloned into the Sma I site of the pCSV 19, thus producing PCSV 19-BAA.
Construction of Transgenic Mice: 2.5 kb Hind III fragments from the pCSV 19-BAA and pCSV 19-BA*A* plasmids were isolated (modified from Sambrook at al., Molecular Cloning, A Laboratory Manual, 2nd Ed., 1989, Cold Spring Harbor Laboratory) and used for the construction of transgenic mice using the pronuclei injection method (Hogan et al., Manipulating the Mouse Embryo. A Laboratory Manual, 1986, Cold Spring Harbor Laboratory). Mice were screened for the HIV-1 protease transgene by either Southern blot or Polymerase Chain Reaction (PCR) methods. Mice of the FVB/N strain (Taketo et al., Proc. Natl. Acad Sci. USA, 1991, 88, 2065-2069) were used for the construction and breeding of these transgenic mice, and were originally obtained from Dr. Carl Hansen (NIH) and bred in our facility. Subsequently, the mice were purchased from Charles River Laboratory (Portage, Mich.).
Identification of Transgenic Mice: Southern blot analysis (Sambrook et al. vide supra) was performed on DNA purified from tail biopsies (Hogan et al. vide supra) using the 2.5 kb Hind III fragment from pCSV 19-BAA as the probe (^32P labeled). DNA for PCR was prepared from tail biopsies by overnight digestion with 0.5 mg of Proteinase K (Boehringer-Manheim GmbH) in 100 μl of water and 0.025% SDS. PCR primers specific for the mouse c-fos gene and the transgene's SV40 segment were used as an internal control in some samples. Each PCR reaction contained 1-2 μl of tail digest, 60 μg of each primer, 200 μM of Perkin Elmer Cetus dATP, dCTP, dGTP,TTP (buffered at pH 8.8) and up to 5 units of Perkin Elmer Cetus Ampli/Taq polymerase. The reactions were run on a Perkin Elmer DNA Thermal Cycler as follows: 1 min at 94° C., 3 min at 67° C. (2 sec extension/cycle) for 35 cycles. The PCR products were analyzed by gel electrophoresis (1% agarose,0.5 μg/ml of ethidium bromide), and tail samples with a 625 PCR fragment (SV40 specific) were considered positive for the transgene. Mice bearing the active HIV-1 protease transgene were also identified by their cataract phenotype.
Dosing Regimen: Compounds to be tested were pulverized by manual grinding with mortar and pestle. Just prior to dosing of mice, the compound was suspended in 0.25% methylcellulose/Tween 80 solution, homogenized in a manual Dounce homogenizer and sonicated for 10 min in a sonicating water bath. The volume of suspension was adjusted so that the amount of compound required for dosing one mouse was 0.1-0.2 mL. In order to maintain the required mg/kg dose, an average mouse weight for each group was determined twice a week and the amount of compound adjusted accordingly. Intraperitoneal (ip) and oral (po) dosing was performed using 25 G ⅝ in. injection and 20 G 1½ in. feeding needles, respectively. The dosing was performed twice a day (bid) and the doses were administered 6-8 h apart.

[4] = biological target: single-chain tethered dimer of HIV protease (Human immunodeficiency virus 1, UniProt P04585); experiment: biochemical; type: biochemical
Description: HIV Protease Inhibition Assay—HPLC Method
Active protease was prepared as described therein by extraction with 67% acetic acid, dilution 33-fold with water, dialysis against water and then against a “refolding buffer” consisting of 20 mM MES, 1 mM dithiothreitol and 10% glycerol. Protease was stored as a stock preparation at 10 uM in refolding buffer.
Substrate: Peptide of sequence: aminobenzoyl-Ala-Thr-His-Gln-Val-Tyr-Phe(NO2)-Val-Arg-Lys-Ala containing p-nitrophenylalanine, was prepared by solid phase synthesis as previously described Cheng et al., op.cit. Stock solutions of 2 mM substrate were prepared in DMSO.
Inhibitory compounds were dissolved in sufficient DMSO to make 3 mM stock solutions. All further dilutions were prepared in “assay buffer”: 1M NaCl, 50 mM MES, pH 5.5, 1 mM EDTA, 1 mM DTT, […] glycerol.
Enzyme reaction: In a 2 ml screw-cap centrifuge tube were added 50 ul protease (final concentration 0.25 nM) and 0.1 ml inhibitory compound (final concentration […]). After 15 min preincubation at room temperature, the reaction was started with the addition of 0.05 ml substrate (final concentration 5 uM). Incubation was carried out at 30 C. for 1 hr. The reaction was stopped with 1 ml 0.1M ammonium hydroxide.
HPLC measurement of product formation: The product (aminobenzoyl-Ala-Thr-His-Gln-Val-Tyr) was separated from substrate on a Pharmacia MonoQ anion exchange column. The injection volume was 0.2 ml. The mobile phases were: A (20 mM trisHCl, pH 9.0, 0.02% sodium Azide, 10% acetonitrile), B (20 mM tris HCl, pH 9.0, 0.02% sodium azide, 0.5M ammonium formate, 10% acetonitrile). The mobile phases were pumped at 1 ml/min, with a gradient from 0 to 30% B in 5 min, 100% B for 4 min to wash the column, and a re-equilibration for 4 min. The retention time of the product was 3.6 min. Detection with a Shimadzu model RF535 fluorescence monitor was at 330 nm (excitation) and 430 (emission).

[5] = tested on: HIV-1 (RF) in MT-2 cells; experiment: microbe, parasite or virus in culture; type: cell-based
How it was run: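 HIV-1 laboratory strains (RF, MN, IIIB) grown in H9 cells in RPMI 1640 with 5% FCS; infections in MT-2 cells. Viral RNA quantified by hybridization with biotinylated gag/pol capture probes on streptavidin plates and alkaline phosphatase-conjugated reporter probes; BH10 gag-pol in vitro transcripts serve as RNA standards.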

[6] = Solubility studies; type: physicochemical
Description: For compounds of the present invention having reduceded water solubility it may be advantageous to prepare prodrugs to enhance the solubility and bioavailability of these compounds. […] Solubility studies were performed by mixing an excess of solid compound in water or aqueous medium for at least 4 hours. Solubility was assessed either visually, if a weighed amount clearly dissolved in a measured volume of solvent (method A), or by HPLC assay of filtrates of saturated solutions (method B).

[7] = Human immunodeficiency virus 1, MT2, HIV RNA assay, HIV-1 infected MT-2 cells, class symbols, read-out: IC90

| SMILES | melting point [°C] | Ki [4] [nM] | IC90 [5, 7] [µg/mL] | also measured |
| --- | --- | --- | --- | --- |
| CC(C)=CCN1C(=O)N(CC=C(C)C)C(Cc2ccccc2)C(O)C(O)C1Cc1ccccc1 (stereo not shown) [Example 1AC] | 160 to 163 |  |  | IC90 [1]: + + +; Ki ([2]; Table 1a, read-out: Ki): < 10 nM |
| CCCN1C(=O)N(CCC)C(Cc2ccccc2)C(O)C(O)C1Cc1ccccc1 (stereo not shown) [Example 1AF] | 180 to 182 |  |  | IC90 [1]: + + + |
| CC(C)CCN1C(=O)N(CCC(C)C)C(Cc2ccccc2)C(O)C(O)C1Cc1ccccc1 (stereo not shown) [Example 1AH] | 194 to 195 |  |  | IC90 [1]: + + +; Ki ([2]; Table 1a, read-out: Ki): < 10 nM |
| O=C1N(Cc2ccccc2)C(Cc2ccccc2)C(O)C(O)C(Cc2ccccc2)N1Cc1ccccc1 (stereo not shown) [Example 1AQ] |  |  |  | IC90 [1]: + + +; Ki ([2]; Ki): < 10 nM; Cataract Density (% of control) ([3]; 60 mg/kg ip preg days 11-18): 46.6 % of control; Cataract Density (% of control) ([3]; 85 mg/kg ip preg days 11-18, 17-18): 20.6 % of control |
| C=CCN1C(=O)N(CC=C)C(Cc2ccccc2)C(O)C(O)C1Cc1ccccc1 (stereo not shown) [Example 1C] |  |  |  | IC90 [1]: + + +; Ki ([2]; Ki, Table 1a): < 10 nM |
| O=C1N(CC2CC2)[C@H](Cc2ccccc2)[C@H](O)[C@@H](O)[C@@H](Cc2ccccc2)N1CC1CC1 [Example 1X] |  |  |  | IC90 [1]: + + +; Ki ([2]; Table 1a, read-out: Ki): < 10 nM; Cataract Density (% of control) ([3]; 5 mg/kg ip preg days 11-18): 39.8 % of control; Cataract Density (% of control) ([3]; 15 mg/kg ip preg days 11-18): 28.8 % of control |
| CCCCN1C(=O)N(CCCC)C(Cc2ccccc2)C(O)C(O)C1Cc1ccccc1 (stereo not shown) [Example 1Z] |  |  |  | IC90 [1]: + + +; Ki ([2]; Table 1a, read-out: Ki): < 10 nM |
| O=C1N(Cc2cccnc2)C(Cc2ccccc2)C(O)C(O)C(Cc2ccccc2)N1Cc1ccc2ccccc2c1 (stereo not shown) [Example 5H] | 94 to 96 | < 10 | < 10 |  |
| C=CCOc1cccc(CN2C(=O)N(Cc3cccc(OCC=C)c3)C(Cc3ccccc3)C(O)C(O)C2Cc2ccccc2)c1 (stereo not shown) [Example 5L] | 170 to 172 | < 10 | > 100 |  |
| C=CCOc1cccc(CN2C(=O)N(Cc3cccc(O)c3)C(Cc3ccccc3)C(O)C(O)C2Cc2ccccc2)c1 (stereo not shown) [Example 5M] | 78 to 79 | < 10 | < 10 |  |
| CCOc1cccc(CN2C(=O)N(Cc3cccc(OCC)c3)C(Cc3ccccc3)C(O)C(O)C2Cc2ccccc2)c1 (stereo not shown) [Example 5N] | 185 to 186 | 10 to 1000 | > 100 |  |
| O=C1N(Cc2ccc(OCc3ccccc3)cc2)C(Cc2ccccc2)C(O)C(O)C(Cc2ccccc2)N1Cc1ccc(OCc2ccccc2)cc1 (stereo not shown) [Example 5P] | 80 to 81 | > 1000 | > 100 |  |
| O=C1N(Cc2ccc(F)cc2)C(Cc2ccccc2)C(O)C(O)C(Cc2ccccc2)N1Cc1ccc2ccccc2c1 (stereo not shown) [Example 5Q] | 105 to 107 | < 10 | < 10 |  |
| O=C1N(Cc2ccc(O)cc2)C(Cc2ccccc2)C(O)C(O)C(Cc2ccccc2)N1Cc1ccc(O)cc1 (stereo not shown) [Example 5R] | 115 to 117 | < 10 | < 10 |  |
| O=C1N(Cc2cccc(CO)c2)C(Cc2ccccc2)C(O)C(O)C(Cc2ccccc2)N1Cc1cccc(CO)c1 (stereo not shown) [Example 5S] | 94 to 95 | < 10 | < 10 |  |
| O=Cc1cccc(CN2C(=O)N(Cc3cccc(C=O)c3)C(Cc3ccccc3)C(O)C(O)C2Cc2ccccc2)c1 (stereo not shown) [Example 5V] | 175 to 176 | < 10 | < 10 |  |
| N#Cc1ccc(CN2C(=O)N(Cc3ccc(C#N)cc3)C(Cc3ccccc3)C(O)C(O)C2Cc2ccccc2)cc1 (stereo not shown) [Example 5W] | 140 to 143 | < 10 | < 10 |  |
| O=Cc1ccc(CN2C(=O)N(Cc3ccc(C=O)cc3)C(Cc3ccccc3)C(O)C(O)C2Cc2ccccc2)cc1 (stereo not shown) [Example 5X] | 90 to 91 | < 10 | < 10 |  |
| CC(C)N1C(=O)N(Cc2cccc(O)c2)C(Cc2ccccc2)C(O)C(O)C1Cc1ccccc1 (stereo not shown) [Example 5Z] | 212 to 213 | < 10 | < 10 |  |
| O=C1N(Cc2cccc(C=NO)c2)C(Cc2ccccc2)C(O)C(O)C(Cc2ccccc2)N1Cc1cccc(C=NO)c1 (stereo not shown) [Example 6C] | 185 to 189 | < 10 | < 10 |  |
| O=C1N(Cc2cccc(Cl)c2)C(Cc2ccccc2)C(O)C(O)C(Cc2ccccc2)N1Cc1cccc(Cl)c1 (stereo not shown) [Example 6X] | 210.3 | < 10 | < 10 |  |
| O=C1N(Cc2cc(F)cc(F)c2)C(Cc2ccccc2)C(O)C(O)C(Cc2ccccc2)N1Cc1cc(F)cc(F)c1 (stereo not shown) [Example 6ZC] | 167.9 | 10 to 1000 | 10 to 100 (≈ 17.3 to 173 µM) |  |
| O=C1N(Cc2cccc(Br)c2)C(Cc2ccccc2)C(O)C(O)C(Cc2ccccc2)N1Cc1cccc(Br)c1 (stereo not shown) [Example 6ZE] | 210.7 | < 10 | < 10 |  |
| O=C1NC(Cc2ccccc2)C(O)C(O)C(Cc2ccccc2)N1Cc1ccc(F)cc1 (stereo not shown) [Example 6ZF] | 188.9 | < 10 | < 10 |  |
| O=C1N(Cc2cc(Cl)cc(Cl)c2)C(Cc2ccccc2)C(O)C(O)C(Cc2ccccc2)N1Cc1cc(Cl)cc(Cl)c1 (stereo not shown) [Example 6ZJ] | 231.1 | 10 to 1000 | 10 to 100 (≈ 15.5 to 155 µM) |  |
| O=C1N(Cc2cccc([N+](=O)[O-])c2)C(Cc2ccccc2)C(O)C(O)C(Cc2ccccc2)N1Cc1cccc([N+](=O)[O-])c1 (stereo not shown) [Example 6Z] | 248.3 | < 10 |  | IC90 ([5]; Human immunodeficiency virus 1, MT2): < 10 µg/mL |
| O=C1N(Cc2ccc(COP(=O)(O)O)cc2)[C@H](Cc2ccccc2)[C@H](O)[C@@H](O)[C@@H](Cc2ccccc2)N1Cc1ccc(COP(=O)(O)O)cc1 [Example 29A] |  |  |  | Solubility [6]: 2.25 mg/mL (≈ 3100 µM) |
| CN(C)CC(=O)OCc1ccc(CN2C(=O)N(Cc3ccc(CO)cc3)[C@H](Cc3ccccc3)[C@H](O)[C@@H](O)[C@H]2Cc2ccccc2)cc1.Cl [Example 29D] |  |  |  | Solubility ([6]; water, method A (visually)): >200 mg/mL |
